Laboratory results taken from ChEMBL document CHEMBL5236645, “Novel imidazo[1,5-a]quinoxaline derivatives: SAR, selectivity and modeling challenges en route to the identification of an α5-GABAA receptor NAM” (Bioorg Med Chem Lett, 2023).

Columns and labels:
[1] = target: T1, Gamma-aminobutyric acid receptor subunit alpha-5 (Homo sapiens, UniProt P31644); experiment: Displacement of flumazenil from alpha5 GABAA receptor (unknown origin)
T1 sequence (P31644 whole entry): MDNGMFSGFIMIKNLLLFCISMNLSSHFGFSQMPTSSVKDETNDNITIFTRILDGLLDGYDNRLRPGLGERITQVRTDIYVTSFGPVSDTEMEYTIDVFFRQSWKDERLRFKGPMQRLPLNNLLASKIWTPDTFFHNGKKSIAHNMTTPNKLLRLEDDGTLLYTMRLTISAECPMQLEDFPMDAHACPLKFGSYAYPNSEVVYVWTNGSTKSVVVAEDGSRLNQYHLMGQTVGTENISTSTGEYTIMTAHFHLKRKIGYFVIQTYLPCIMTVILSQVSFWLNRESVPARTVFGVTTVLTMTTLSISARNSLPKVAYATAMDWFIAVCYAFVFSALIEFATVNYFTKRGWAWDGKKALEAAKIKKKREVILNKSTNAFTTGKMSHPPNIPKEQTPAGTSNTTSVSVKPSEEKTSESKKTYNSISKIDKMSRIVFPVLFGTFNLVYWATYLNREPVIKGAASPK

[2] = target: T2, Gamma-aminobutyric acid receptor subunit alpha-1 (Homo sapiens, UniProt P14867); experiment: Displacement of flumazenil from alpha1 GABAA receptor (unknown origin)
T2 sequence (P14867 whole entry): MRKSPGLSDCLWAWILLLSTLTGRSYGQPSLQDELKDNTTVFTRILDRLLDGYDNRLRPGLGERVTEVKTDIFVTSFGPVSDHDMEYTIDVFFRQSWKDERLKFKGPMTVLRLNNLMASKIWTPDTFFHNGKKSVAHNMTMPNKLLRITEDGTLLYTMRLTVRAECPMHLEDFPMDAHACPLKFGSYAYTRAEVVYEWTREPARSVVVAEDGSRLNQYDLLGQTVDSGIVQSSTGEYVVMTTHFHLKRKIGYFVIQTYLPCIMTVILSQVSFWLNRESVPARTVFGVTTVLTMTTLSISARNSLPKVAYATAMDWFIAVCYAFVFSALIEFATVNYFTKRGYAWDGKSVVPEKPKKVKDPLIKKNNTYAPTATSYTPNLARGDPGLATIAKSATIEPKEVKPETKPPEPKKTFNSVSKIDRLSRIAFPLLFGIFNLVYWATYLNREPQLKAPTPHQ

[3] = target: T3, Gamma-aminobutyric acid receptor subunit alpha-5 (Homo sapiens) (UniProt P31644); experiment: Displacement of flumazenil from alpha5 GABAA receptor (unknown origin) at 1 uM relative to control
T3 sequence (whole entry): T1 sequence (P31644 whole entry)

[4] = target: T2, Gamma-aminobutyric acid receptor subunit alpha-1; experiment: Negative allosteric modulation of alpha1 GABAA (unknown origin)
[5] = target: T1, Gamma-aminobutyric acid receptor subunit alpha-5; experiment: Negative allosteric modulation of alpha5 GABAA (unknown origin)
[6] = target: T3, Gamma-aminobutyric acid receptor subunit alpha-5 (Homo sapiens); experiment: Displacement of flumazenil from alpha5 GABAA receptor (unknown origin) at 10 uM relative to control; settings: filed as modulator

Cc1ccc(Cn2c(=O)c3cncn3c3ccccc32)cn1
Ki [1]: 16 nM | Ki [2]: 35 nM

Cc1cc(Cn2c(=O)c3cncn3c3ccccc32)no1
Ki [1]: 56 nM | Ki [2]: 32 nM

O=c1c2c(CC3CC3)ncn2c2ccccc2n1Cc1ccccn1
Ki [1]: 80 nM | Ki [2]: 23 nM

CN1C(=O)COc2cc(Cn3c(=O)c4cncn4c4ccccc43)ccc21
Ki [1]: 48 nM | Ki [2]: 74 nM

N#Cc1ccc(Cn2c(=O)c3cncn3c3ccccc32)cn1
Activity ([3]; filed as modulator): 61%

CCc1ncn2c1c(=O)n(Cc1ccccn1)c1ccccc12
Ki [1]: 360 nM

Cc1cc(Cc2ncn3c2c(=O)n(Cc2ccccn2)c2ccccc23)no1
Ki [1]: 379 nM

O=c1c2cncn2c2cc(OC(F)(F)F)ccc2n1Cc1cccnc1
Activity ([3]; filed as modulator): 42%

O=c1c2cncn2c2ccccc2n1CCc1ccccn1
Activity [3]: 29%

Cc1onc(-c2ccc(F)cc2)c1COc1ccc(C(=O)N2CCS(=O)(=O)CC2)cn1 [BASMISANIL]
Ki [4]: 1210 nM | Ki [5]: 4.4 nM

O=c1c2cncn2c2ccccc2n1Cc1ccncc1
Activity ([3]; filed as modulator): 62%

COc1ccc2c(c1)n(Cc1cccnc1)c(=O)c1cncn12
Ki [1]: 20 nM | Ki [2]: 120 nM

Cc1ncn2c1c(=O)n(Cc1ccccn1)c1ccccc12
Ki [1]: 65 nM | Ki [2]: 16 nM

O=c1c2cncn2c2ccccc2n1Cc1cnccn1
Ki [1]: 33 nM | Ki [2]: 55 nM

Cc1noc(C)c1Cn1c(=O)c2c(C)ncn2c2ccccc21
Activity ([3]; filed as modulator): 65%

O=c1c2c(CO)ncn2c2ccccc2n1Cc1cccnc1
Ki [1]: 52 nM | Ki [2]: 100 nM

CCn1c(=O)c2cncn2c2ccccc21
Ki [1]: 1380 nM

O=c1c2cncn2c2ccc(Br)cc2n1Cc1cccnc1
Ki [1]: 89 nM | Ki [2]: 76 nM

Cc1ccncc1Cn1c(=O)c2cncn2c2ccccc21
Ki [1]: 17 nM | Ki [2]: 60 nM

Cc1ncccc1Cn1c(=O)c2cncn2c2ccccc21
Ki [1]: 107 nM

O=c1c2cncn2c2ccccc2n1-c1ccccn1
Activity [3]: 7%

Cn1cc(Cn2c(=O)c3cncn3c3ccccc32)cn1
Ki [1]: 64 nM | Ki [2]: 123 nM

COc1cc(Cl)c2c(c1)n(Cc1cccnc1)c(=O)c1cncn12
Ki [1]: 142 nM | Ki [2]: 670 nM

O=c1c2c(Cl)ncn2c2ccccc2n1Cc1ccccn1
Ki [1]: 12 nM | Ki [2]: 5.4 nM

Cc1cccc2c1n1cncc1c(=O)n2Cc1cccnc1
Ki [1]: 86 nM | Ki [2]: 600 nM

O=c1c2cncn2c2ccccc2n1Cc1ccccc1
Activity ([3]; filed as modulator): 61%

O=c1c2cncn2c2c(Cl)cc(Cl)cc2n1Cc1cccnc1
Ki [1]: 138 nM | Ki [2]: 420 nM

COc1cc(Cl)c2c(c1)n(Cc1cnccc1C)c(=O)c1cncn12
Ki [1]: 687 nM | Ki [2]: 2100 nM

CC(C)(C)c1ccc2c(c1)n(Cc1cccnc1)c(=O)c1cncn12
Ki [1]: 210 nM | Ki [2]: 310 nM

O=C(c1ccc(Cn2c(=O)c3cncn3c3ccccc32)cn1)N1CCOCC1
Activity [3]: 38%

N#Cc1cccc2c1n1cncc1c(=O)n2Cc1cccnc1
Activity [3]: 0%

Cc1ncc(Cn2c(=O)c3cncn3c3ccccc32)cn1
Ki [1]: 1.7 nM | Ki [2]: 3.6 nM

COc1ccc2c(c1)n1cncc1c(=O)n2Cc1cccnc1
Activity [3]: 18%

O=c1c2cncn2c2c(Cl)cccc2n1Cc1cccnc1
Ki [1]: 295 nM | Ki [2]: 2150 nM

O=c1c2cncn2c2ccccc2n1Cc1cccnc1
Ki [1]: 28 nM | Ki [2]: 32 nM

CCOC(=O)c1ncn2c1c(=O)n(Cc1cccnc1)c1cccc(Cl)c12
Ki [1]: 2 nM | Ki [2]: 7 nM

Cn1c(=O)c2cncn2c2ccccc21
Ki [1]: 2190 nM

O=c1c2cncn2c2cc(F)c(F)cc2n1Cc1cccnc1
Activity ([3]; filed as modulator): 57%

Cc1cc(-c2nnc3c4ccccc4c(OCc4ccccn4)nn23)no1
Ki [4]: 0.4 nM | Ki [5]: 0.5 nM

O=c1c2cncn2c2ccccc2n1Cc1ccccn1
Ki [1]: 132 nM | Ki [2]: 52 nM

CCOC(=O)c1ncn2c1c(=O)n(Cc1cccnc1)c1ccccc12
Ki [1]: 0.3 nM | Ki [2]: 0.4 nM

O=c1[nH]c2ccccc2n2cncc12
Activity [6]: 53%

Cc1ncn2c1c(=O)n(Cc1cccnc1)c1ccccc12
Ki [1]: 18 nM | Ki [2]: 8 nM

Cc1cc(Cn2c(=O)c3c(C)ncn3c3ccccc32)no1
Ki [1]: 30 nM

O=c1c2cncn2c2cccnc2n1Cc1cccnc1
Ki [1]: 122 nM

O=c1c2cncn2c2ccccc2n1Cc1cncnc1
Ki [1]: 15 nM | Ki [2]: 30 nM

COc1ccc(Cn2c(=O)c3cncn3c3ccccc32)cc1
Ki [1]: 244 nM

O=c1c2cncn2c2ccc(Cl)cc2n1Cc1cccnc1
Ki [1]: 11 nM | Ki [2]: 15 nM

O=c1c2cncn2c2cc(Cl)ccc2n1Cc1cccnc1
Ki [1]: 840 nM

Cc1cncc(Cn2c(=O)c3cncn3c3ccccc32)c1
Ki [1]: 17 nM | Ki [2]: 60 nM
